Results on 30 molecules are retold here after patent US20250340510A1, “Substituted Phenylbenzenesulfonamide Derivatives and Uses Thereof” (Nine Square Therapeutics Corporation, priority 2022, published 2025).

For the assay, the target named is TRPML1 (Homo sapiens, UniProt Q9GZU1). In words: Calcium flux in HEK293 overexpressing TRPML1 plasma membrane variant (FLIPR, Calcium 6 dye). To be noted: HEK293/TRPML1-PM clone A5 cells; 4-parameter logistic fit; read-out: TRPML1 calcium flux (FLIPR) dose response: EC50. It is filed as cell-based. The text has this: Example B1. Calcium Flux in HEK293 Overexpressing TRPML1 Plasma Membrane Variant—Calcium 6 Dye
TRPML1, sequence (Q9GZU1 17-572 limits assumed): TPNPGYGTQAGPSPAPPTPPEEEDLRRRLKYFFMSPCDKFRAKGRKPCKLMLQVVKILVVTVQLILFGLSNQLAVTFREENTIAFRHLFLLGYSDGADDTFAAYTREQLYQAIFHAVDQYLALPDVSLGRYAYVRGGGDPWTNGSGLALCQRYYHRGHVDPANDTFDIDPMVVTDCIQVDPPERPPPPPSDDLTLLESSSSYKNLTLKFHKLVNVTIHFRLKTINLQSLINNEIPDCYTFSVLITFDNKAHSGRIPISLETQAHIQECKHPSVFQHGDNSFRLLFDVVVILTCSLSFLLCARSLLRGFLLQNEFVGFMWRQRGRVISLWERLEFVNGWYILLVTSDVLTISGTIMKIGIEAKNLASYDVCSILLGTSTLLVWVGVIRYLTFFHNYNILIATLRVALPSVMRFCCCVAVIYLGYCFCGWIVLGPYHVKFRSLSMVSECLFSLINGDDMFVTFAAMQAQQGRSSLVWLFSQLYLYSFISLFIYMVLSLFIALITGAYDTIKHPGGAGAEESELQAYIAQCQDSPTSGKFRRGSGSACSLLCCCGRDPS
Cells: HEK293/TRPML1-PM clone A5, clonal cell line containing mutant TRPML1 (both N- and C-terminal dileucine targeting motifs deleted) that localizes to the plasma membrane
Plates: Perkin Elmer Viewplate cat. #6007460, black optically clear, tissue culture treated 384-well plate
Calcium dye: Molecular Devices FLIPR Calcium 6 Assay Kit, cat. #R8190 or Fluo-4 Direct from Thermo Fisher, cat. #F10471
Tips: Molecular Devices 384-well FLIPR Tetra black tips, cat. #9000-0764 Example B1.2 Method
HEK293/TRPML1-PM clone A5 cells were trypsinized from flasks, counted, then diluted in media to 15,000 cells per 25 μL, and seeded into a black, 384-well viewplate, and cultured overnight.
One vial of calcium 6 dye was diluted with 10 mL of assay buffer (HBSS+20 mM HEPES pH 7.4) and 25 μL of the dilution was added per well to the cells.
After incubating for 2 hours at 37° C., the plate was moved to the FLIPR in the read position.
The compounds were diluted in EMEM with 0.125% FBS to 5× concentration and loaded in a 384-well plate according to the desired plate map for the assay, including DMSO alone and carbachol controls, then the plate was moved to the FLIPR in the source 2 position.
A box of tips was placed in the source 1 position within the FLIPR to complete the assay set up.
Once the run was started, an initial baseline fluorescent measurement was performed for 10 seconds (470-495 nm excitation and 515-575 nm emission) prior to adding the compounds.
12.5 μL of 5× test compound, DMSO alone, or carbachol were added via the FLIPR and real-time fluorescence measurements were performed for an additional 170 seconds with 1 read per second.
The data was normalized to baseline by calculating maximum fluorescence minus minimum fluorescence and plotted as response (fold) over the baseline versus log ([…] concentration). The EC50 was determined using a 4-parameter logistic curve fit in Graphpad Prism 9.

Structures are written as SMILES. Bounds are passed on as bounds.

As a reminder, the EC50 is the concentration giving half of the maximal effect. Regarding `CN(c1ccccc1NS(=O)(=O)c1ccc(S(=O)(=O)N(C)C)cc1)C1CC(F)(F)C1` [Compound 40, N1-(2-((3,3-difluorocyclobutyl) (methyl)amino)phenyl)-N4,N4-dimethylbenzene-1,4-disulfonamide], the EC50 stood at 0.41 µM.

For `CN(CCC1CCOCC1)c1ccccc1NS(=O)(=O)c1ccc(S(=O)(=O)N(C)C)cc1` [Compound 114, N1,N1-dimethyl-N4-(2-(methyl(2-(tetrahydro-2H-pyran-4-yl)ethyl)amino)phenyl)benzene-1,4-disulfonamide], the EC50 worked out at 4.02 µM.

On to `CN(Cc1cnn(C2CC2)c1)c1ccccc1NS(=O)(=O)c1ccc(S(=O)(=O)N(C)C)cc1` [Compound 5, N1-(2-(((1-cyclopropyl-1H-pyrazol-4-yl)methyl)(methyl)amino)phenyl)-N4,N4-dimethylbenzene-1,4-disulfonamide], for which the 50% effective concentration (EC50) worked out at 2.46 µM.

With `COCCCN(C)c1ccccc1NS(=O)(=O)c1ccc(S(=O)(=O)N(C)C)cc1` [Compound 34, N1-(2-((3-methoxypropyl)(methyl)amino)phenyl)-N4,N4-dimethylbenzene-1,4-disulfonamide], the EC50 was 3.2 µM.

With `CCN(C)c1ccccc1NS(=O)(=O)c1ccc(S(=O)(=O)N(C)C)cc1` [Compound 9, N1-(2-(ethyl(methyl)amino)phenyl)-N4,N4-dimethylbenzene-1,4-disulfonamide], the EC50 turned out to be 3.46 µM.

In the case of `CN(CCCn1cccn1)c1ccccc1NS(=O)(=O)c1ccc(S(=O)(=O)N(C)C)cc1` [Compound 105, N1-(2-((3-(1H-pyrazol-1-yl)propyl)(methyl)amino)phenyl)-N4,N4-dimethylbenzene-1,4-disulfonamide], the EC50 was 4.36 µM.

As to `CN(c1c(Cl)cccc1NS(=O)(=O)c1ccc(S(=O)(=O)N(C)C)cc1)C1CCCCC1` [Compound 38, N1-(3-chloro-2-(cyclohexyl(methyl)amino)phenyl)-N4,N4-dimethylbenzene-1,4-disulfonamide], the EC50 worked out at 0.24 µM.

On to `CN(CCN1CCOCC1)c1ccccc1NS(=O)(=O)c1ccc(S(=O)(=O)N(C)C)cc1` [Compound 15, N1,N1-dimethyl-N4-(2-(methyl(2-morpholinoethyl)amino)phenyl) benzene-1,4-disulfonamide], for which the EC50 is greater than 10 µM.

Take `CN(c1ccccc1NS(=O)(=O)c1ccc(S(=O)(=O)N(C)C)cc1)C1CCNCC1` [Compound 22, N1,N1-dimethyl-N4-(2-(methyl(piperidin-4-yl)amino)phenyl)benzene-1,4-disulfonamide]: the EC50 is greater than 10 µM.

`CCN(c1ccccc1NS(=O)(=O)c1ccc(S(=O)(=O)N(C)C)cc1)C1CCCCC1` [Compound 60, N1-(2-(cyclohexyl(ethyl)amino)phenyl)-N4,N4-dimethylbenzene-1,4-disulfonamide]: the EC50 is 0.0867 µM.

On to `CN(CC1CCOC1)c1ccccc1NS(=O)(=O)c1ccc(S(=O)(=O)N(C)C)cc1` (stereo not drawn) [Compound 112, N1,N1-dimethyl-N4-(2-(methyl((tetrahydrofuran-3-yl)methyl)amino)phenyl)benzene-1,4-disulfonamide], for which the EC50 came to 3.72 µM.

`CN(CC1COC1)c1ccccc1NS(=O)(=O)c1ccc(S(=O)(=O)N(C)C)cc1` [Compound 47, N1,N1-dimethyl-N4-(2-(methyl(oxetan-3-ylmethyl)amino)phenyl)benzene-1,4-disulfonamide]: the EC50 is greater than 10 µM.

For the molecule `CCn1cnc(CN(C)c2ccccc2NS(=O)(=O)c2ccc(S(=O)(=O)N(C)C)cc2)c1` [Compound 44, N1-(2-(((1-ethyl-1H-imidazol-4-yl)methyl)(methyl)amino)phenyl)-N4,N4-dimethylbenzene-1,4-disulfonamide], the EC50 is greater than 10 µM.

For `CCN(CC)c1ccccc1NS(=O)(=O)c1ccc(S(=O)(=O)N(C)C)cc1` [Compound 82, N1-(2-(diethylamino)phenyl)-N4,N4-dimethylbenzene-1,4-disulfonamide], the EC50 stood at 3.76 µM.

As to `CN(c1ccc(F)cc1NS(=O)(=O)c1ccc(S(=O)(=O)N(C)C)cc1)C1CCCCC1` [Compound 53, N1-(2-(cyclohexyl(methyl)amino)-5-fluorophenyl)-N4,N4-dimethylbenzene-1,4-disulfonamide], the EC50 is 1.06 µM.

Turning to `CN(Cc1cncn1C)c1ccccc1NS(=O)(=O)c1ccc(S(=O)(=O)N(C)C)cc1` [Compound 56, N1,N1-dimethyl-N4-(2-(methyl((1-methyl-1H-imidazol-5-yl)methyl)amino)phenyl)benzene-1,4-disulfonamide], the EC50 is greater than 10 µM.

As for `CN(c1cc(Cl)ccc1NS(=O)(=O)c1ccc(S(=O)(=O)N(C)C)cc1)C1CCCCC1` [Compound 2, N1-(4-chloro-2-(cyclohexyl(methyl)amino)phenyl)-N4,N4-dimethylbenzene-1,4-disulfonamide], the EC50 was found to be 3 µM.

With `CN(CCc1nccs1)c1ccccc1NS(=O)(=O)c1ccc(S(=O)(=O)N(C)C)cc1` [Compound 90, N1,N1-dimethyl-N4-(2-(methyl(2-(thiazol-2-yl)ethyl)amino)phenyl)benzene-1,4-disulfonamide], the EC50 amounted to 1.4 µM.

Regarding `CN(Cc1cn2c(n1)CCC2)c1ccccc1NS(=O)(=O)c1ccc(S(=O)(=O)N(C)C)cc1` [Compound 83, N1-(2-(((6,7-dihydro-5H-pyrrolo[1,2-a]imidazol-2-yl)methyl)(methyl)amino)phenyl)-N4,N4-dimethylbenzene-1,4-disulfonamide], the EC50 was greater than 30 µM.

On to `CN(Cc1cnc2n1CCC2)c1ccccc1NS(=O)(=O)c1ccc(S(=O)(=O)N(C)C)cc1` [Compound 79, N1-(2-(((6,7-dihydro-5H-pyrrolo[1,2-a]imidazol-3-yl)methyl)(methyl)amino)phenyl)-N4,N4-dimethylbenzene-1,4-disulfonamide], for which the EC50 worked out at 28.5 µM.

For `COCC1(C)CCC(CN(C)c2ccccc2NS(=O)(=O)c2ccc(S(=O)(=O)N(C)C)cc2)CC1` (stereo not drawn) [Compound 39, N1-(2-(((4-(methoxymethyl)-4-methylcyclohexyl)methyl)(methyl)amino)phenyl)-N4,N4-dimethylbenzene-1,4-disulfonamide], the EC50 was 0.42 µM.

For `CN(c1cccc(C(F)(F)F)c1NS(=O)(=O)c1ccc(S(=O)(=O)N(C)C)cc1)C1CCCCC1` [Compound 92, N1-(2-(cyclohexyl(methyl)amino)-6-(trifluoromethyl)phenyl)-N4,N4-dimethylbenzene-1,4-disulfonamide], the EC50 was 7.44 µM.

Take `CN(c1cc(C#N)ccc1NS(=O)(=O)c1ccc(S(=O)(=O)N(C)C)cc1)C1CCCCC1` [Compound 88, N1-(4-cyano-2-(cyclohexyl(methyl)amino)phenyl)-N4,N4-dimethylbenzene-1,4-disulfonamide]: the EC50 is 2.14 µM.

On to `Cc1cc(CN(C)c2ccccc2NS(=O)(=O)c2ccc(S(=O)(=O)N(C)C)cc2)cc(C)n1` [Compound 48, N1-(2-(((2,6-dimethylpyridin-4-yl)methyl)(methyl)amino)phenyl)-N4,N4-dimethylbenzene-1,4-disulfonamide], for which the EC50 stood at 7.45 µM.

With `CN(C)CCN(C)c1ccccc1NS(=O)(=O)c1ccc(S(=O)(=O)N(C)C)cc1` [Compound 54, N1-(2-((2-(dimethylamino)ethyl)(methyl)amino)phenyl)-N4,N4-dimethylbenzene-1,4-disulfonamide], the EC50 was greater than 10 µM.

Turning to `CN(CC1CCC(C)(C)OC1)c1ccccc1NS(=O)(=O)c1ccc(S(=O)(=O)N(C)C)cc1` (stereo not drawn) [Compound 32, N1-(2-(((6,6-dimethyltetrahydro-2H-pyran-3-yl)methyl)(methyl)amino)phenyl)-N4,N4-dimethylbenzene-1,4-disulfonamide], the EC50 was determined as 0.81 µM.

`Cc1ccc(NS(=O)(=O)c2ccc(S(=O)(=O)N(C)C)cc2)c(N(C)C2CCCCC2)c1` [Compound 35, N1-(2-(cyclohexyl(methyl)amino)-4-methylphenyl)-N4,N4-dimethylbenzene-1,4-disulfonamide]: the EC50 is 0.33 µM.

Turning to `CN(Cc1ccn(C2CC2)n1)c1ccccc1NS(=O)(=O)c1ccc(S(=O)(=O)N(C)C)cc1` [Compound 94, N1-(2-(((1-cyclopropyl-1H-pyrazol-3-yl)methyl)(methyl)amino)phenyl)-N4,N4-dimethylbenzene-1,4-disulfonamide], the EC50 was 2.53 µM.

Regarding `CCCN(C)c1ccccc1NS(=O)(=O)c1ccc(S(=O)(=O)N(C)C)cc1` [Compound 16, N1,N1-dimethyl-N4-(2-(methyl(propyl)amino)phenyl)benzene-1,4-disulfonamide], the EC50 came out at 2.37 µM.

Consider `CN(Cc1ccncc1)c1ccccc1NS(=O)(=O)c1ccc(S(=O)(=O)N(C)C)cc1` [Compound 8, N1,N1-dimethyl-N4-(2-(methyl(pyridin-4-ylmethyl)amino)phenyl) benzene-1,4-disulfonamide], for which the EC50 is 3.69 µM.
